Target: T1, PH ([325-451]ASAP1) (Mus musculus, UniProt Q9QWY8)
T1 sequence (Q9QWY8 325-451): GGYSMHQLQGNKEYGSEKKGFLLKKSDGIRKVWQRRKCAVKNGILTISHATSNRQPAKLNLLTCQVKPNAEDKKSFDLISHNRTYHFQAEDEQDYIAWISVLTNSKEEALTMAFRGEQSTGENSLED
Experiment: isothermal titration calorimetry
Format: binding

O=P(O)(O)O[C@@H]1[C@H](O)[C@H](O)[C@@H](OP(=O)(O)O)[C@H](OP(=O)(O)O)[C@H]1O [IP3]
Kd: 75 ± 15 µM
